Reference: patent publication US20250099420A1, “SMALL MOLECULE MODULATORS OF GPR139 COMPLEX” (University of Florida Research Foundation, Incorporated, priority 2022, published 2025)
Like-named read-outs stand apart in the source and are kept apart here.

Experiments:
parental HEK cells = assay: HEK parental Agonist Counterscreen Assay (non-transfected cells); format: cell-based; conditions: for Averaged Max % Response (±St. Dev.): activity relative to known control
Description: The high control for the agonist counterscreen was Forskolin not acetylcholine.

GPR139 = target: T1, GPR139 (Homo sapiens, UniProt Q6DWJ6); assay: GPR139 Agonist titration / agonist counterscreen assay (calcium detection, HEK-GPR139 cells); format: cell-based; set-up: expressed in transfected cells; host or cells: HEK Aequorin cells, Maxcyte transient transfection; conditions: GPR139 Agonist Activity; for Averaged Max % Response (±St. Dev.): activity relative to known control; for EC50: read-out: EC50
T1 sequence (Q6DWJ6 1-353): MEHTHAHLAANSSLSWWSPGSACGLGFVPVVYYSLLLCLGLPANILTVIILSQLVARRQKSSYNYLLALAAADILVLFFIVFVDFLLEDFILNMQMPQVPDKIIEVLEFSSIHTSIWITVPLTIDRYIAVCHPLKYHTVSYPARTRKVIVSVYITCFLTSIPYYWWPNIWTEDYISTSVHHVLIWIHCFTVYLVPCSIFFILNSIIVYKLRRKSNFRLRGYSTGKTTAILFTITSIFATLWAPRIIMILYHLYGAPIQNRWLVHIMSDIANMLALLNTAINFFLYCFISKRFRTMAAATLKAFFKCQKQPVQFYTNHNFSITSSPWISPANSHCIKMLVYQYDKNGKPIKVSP
Experimental: GPR activity was assessed using a calcium detection assay. […] Negative control samples were treated with DMSO. […] Intracellular calcium was measured using Calcium 5.

[1] = Homo sapiens, HEK293, HEK Agonist Activity section of Table 4 (parental HEK counterscreen)
[2] = values printed in E-notation without unit
[3] = Homo sapiens, HEK293, HEK Agonist Activity, parental non-transfected HEK cells
[4] = HEK Agonist Activity section of Table 4 (parental HEK counterscreen)

SMILES | Lipophilic Efficiency (logD) (parental HEK cells; HEK Agonist Activity section) | Lipophilic Efficiency (logP) (parental HEK cells; HEK Agonist Activity section) | Averaged Max % Response (±St. Dev.) (parental HEK cells; HEK Agonist Activity section) [%] | EC50 (parental HEK cells; [1]) [nM] | Efficiency Ligand (GPR139) | Hill Slope (GPR139) | Lipophilic Efficiency (logD) (GPR139) | Lipophilic Efficiency (logP) (GPR139) | Averaged Max % Response (±St. Dev.) (GPR139) [%] | Lipophilic Efficiency (logD) (GPR139; based on logD) | Lipophilic Efficiency (logP) (GPR139; based on logP) | Hill Slope (GPR139; fitted dose-response curve) | Efficiency Ligand (GPR139; ligand efficiency) | EC50 (GPR139; [2]) [nM] | Lipophilic Efficiency (logD) (parental HEK cells; HEK Agonist Activity) | Lipophilic Efficiency (logP) (parental HEK cells; HEK Agonist Activity) | Averaged Max % Response (±St. Dev.) (parental HEK cells; HEK Agonist Activity) [%] | EC50 (parental HEK cells; [3]) [nM] | EC50 (parental HEK cells; [4]) [nM] | EC50 (GPR139; HEK-GPR139 cells) [nM]
O=C(O)COc1cc(Br)c(Br)c(Br)c1O [SR-01000028953] | 5.29 | 1.52 | 1.36 ± 9.86 | > 15300 | 0.54 | 0.80 | 6.30 | 2.53 | 88.05 ± 4.24 |  |  |  |  |  |  |  |  |  |  | 
O=C(CN1CCCc2ccccc21)NNC(=O)Nc1ccc(Cl)c(Cl)c1 [SR-01000029575] | 1.09 | 1.08 | 7.49 ± 5.72 | > 14300 |  |  |  |  | 96.54 ± 7.56 | 3.35 | 3.34 | 0.79 | 0.38 | 78.1 |  |  |  |  |  | 
CC(=O)c1cccc(C(C)(C)CC(=O)CNC(=O)c2ccccc2)c1 [SR-01000031674] |  |  |  |  |  |  |  |  | 113.33 ± 7.65 | 6.57 | 6.57 | 0.44 | 0.50 |  | 2.46 | 2.46 | 35.54 ± 2.15 | > 15000 |  | 
COC(=O)c1ccc(CSc2nnc(N)s2)cc1 [SR-01000031964] | 2.26 | 2.26 | 13.73 ± 5.82 |  | 0.51 | 1.27 | 4.00 | 4.00 | 89.11 ± 2.96 |  |  |  |  |  |  |  |  |  | > 16000 | 290
COc1ccc(CCNC(=O)CC(=O)NCCc2ccc(OC)cc2)cc1 [SR-01000034566] | 2.60 | 2.60 | −4.69 ± 7.66 |  |  |  |  |  | 100.73 ± 15.83 | 4.65 | 4.65 | 0.96 | 0.36 | 137 |  |  |  |  | > 15200 | 
Nc1ccc(C(=O)OCC(=O)NC2CCCc3ccccc32)cc1[N+](=O)[O-] (stereo not shown) [SR-01000034627] | 1.47 | 1.47 | 2.09 ± 12.58 | > 15300 |  |  |  |  | 64.98 ± 9.75 | 3.27 | 3.27 | 2.03 | 0.34 | 245 |  |  |  |  |  | 
CC(NC(=O)COC(=O)c1ccccc1C(F)(F)F)c1ccccc1 (stereo not shown) [SR-01000037440] |  |  |  |  |  |  |  |  | 90.68 ± 18.21 | 3.59 | 3.59 | 0.54 | 0.42 | 32.9 | 0.95 | 0.95 | 16.47 ± 8.15 | > 14400 |  | 
O=C(CN1C(=O)NC2(CCc3ccccc3C2)C1=O)Nc1ccccc1Oc1ccccc1 (stereo not shown) [SR-01000039980] |  |  |  |  |  |  |  |  | 134.67 ± 13.58 | 4.01 | 4.01 | 0.55 | 0.34 | 10.4 | 0.84 | 0.84 | 39.53 ± 8.33 | > 15300 |  | 
CCn1c(C)nc2cc(C(=O)NNC(=O)Cc3cccc4ccccc34)ccc21 [SR-01000041378] |  |  |  |  |  |  |  |  | 94.48 ± 15.59 | 4.29 | 4.29 | 0.61 | 0.35 | 46.1 | 1.79 | 1.79 | −2.48 ± 2.57 | > 14600 |  | 
